Where “and” joins values, the source holds several entries; their conditions need not be identical. Identical values can stand only once.
What was measured:
Gallus gallus = settings: for LEL: oral, diet
Sus scrofa = settings: short-term; duration: 14 days; M/F; Not specified; histopathology: nonneoplastic
Homo sapiens = settings: clinical; for NOAEL: M, clinical chemistry; for LEL: no effects
Mus musculus = settings: for LOAEL: M
Daphnia magna = settings: acute
Colinus virginianus = settings: acute; oral; mortality
Apis mellifera = settings: acute; dermal; mortality

`[Cl-].[Cu+2].[Cu+2].[OH-].[OH-].[OH-]` [Dicopper chloride trihydroxide] was tested, and the LEL (Gallus gallus; chronic, duration: 16 weeks, no effects) was 390 mg/kg-day, the LEL (Gallus gallus; short-term, duration: 21 days, M/F, food consumption) was 600 mg/kg-day and the LEL (Gallus gallus; short-term, duration: 21 days, clinical chemistry) was 450 mg/kg-day and 300 mg/kg-day.

`CCCCCCCC/C=C\CCCCCCCCCCCC(=O)O` [Erucic acid] gave an NOAEL (Rattus norvegicus; short-term, duration: 7 days, oral, diet, M, Sprague-Dawley, histopathology: nonneoplastic) of 700 mg/kg-day, an LOAEL (Gallus gallus; chronic, histopathology: nonneoplastic) of 20 mg/kg-day and an NOAEL (Sus scrofa) of 700 mg/kg-day.

In the case of `O=C1OC2(c3ccccc31)c1cc(I)c([O-])c(I)c1Oc1c2cc(I)c([O-])c1I.[Na+].[Na+]` [FD&C Red 3], the NOAEL (Rattus norvegicus; repeat dose other, oral, diet, other) is reported as 125 mg/kg-day, the NOAEL (Canidae; chronic, duration: 2 years, oral, diet, M/F, Beagle, clinical chemistry) is reported as 10000 mg/kg-day and the NOAEL (Homo sapiens; duration: 14 days, oral, capsule) is reported as 1 mg/kg-day.

`[Fe+2]` [Fe +2 ion] gave an NOAEL (Rattus norvegicus; developmental, development) of 380 mg/kg-day and an NOAEL (Mus musculus; developmental, development) of 380 mg/kg-day.

`C/C=C/c1ccc(O)c(OC)c1` [Isoeugenol] showed an NOEC (Daphnia magna) of 0.4 mg/L and an LOAEL (Mus musculus; chronic, duration: 2 years, histopathology: neoplastic) of 75 mg/kg-day.

Work on `Cc1cc(OC(C)C)ccc1C(=O)C(C)(C)NC(=O)c1sccc1C` [Isofetamid] yielded an NOAEL (Canidae; chronic, duration: 1 years, Dog Other, body weight) of 1.57 mg/kg-day and an NOAEL (Canidae; subchronic, duration: 90 days, oral, Dog Other, body weight) of 5.34 mg/kg-day.

`Cl.Cl.[Cu+2].[NH-][C@@H](CCCCN)C(=O)[O-].[NH-][C@@H](CCCCN)C(=O)[O-]` [L-Lysine, copper complex] was tested, and the NOAEL (Homo sapiens; duration: 12 weeks, oral) was 10 mg/day.

For `[Cl-].[Mn+2].[Mn+2].[OH-].[OH-].[OH-]` [Manganese chloride hydroxide (Mn2Cl(OH)3)], the LEL (Gallus gallus; subchronic, duration: 35 days, no effects) was 1920 mg/kg-day.

For `CSSC` [Methyl disulfide], the LD50 (Rattus norvegicus; acute, oral, mortality) was over 125 mg/kg, the NOAEC (Rattus norvegicus; reproduction developmental, body weight) was 5 ppm and the NOAEC (Rattus norvegicus; reproduction developmental, inhalation, no effects) was 308 mg/m3. It also gave an NOAEC (Rattus norvegicus; subchronic, duration: 90 days, inhalation, body weight) of 77 mg/m3, an LD50 (Colinus virginianus) of 342 mg/kg and an LD50 (Apis mellifera) of over 100 µg/piece.

Work on `CN1CCCC1=O` [N-Methyl-2-pyrrolidone] yielded an NOAEL (Mus musculus; chronic, M/F, B6C3F1, organ weight) of 90 mg/kg-day.

Work on `C=C(/C=C\C[C@@H](O)[C@@H](O)[C@H](O)C/C=C/C=C\[C@@H](O)C[C@@H]1O[C@H](C[C@@H](O)[C@H](O)C[C@H]2O[C@H]([C@H](O)[C@H](O)CC[C@H](O)/C=C/[C@H](C)[C@@H](O)C[C@]3(O)O[C@H](C[C@@H](O)CCCCCCC[C@@]45C[C@@H](C)C[C@@](C)(O4)[C@@H](C[C@@H](C)CCCCC[C@@H](O)[C@H](O)[C@H](O)[C@@H](O)[C@H](O)[C@H]4O[C@H](C[C@H](O)[C@H](O)/C(C)=C/[C@H](O)C[C@@H](C)[C@H](O)C(=O)N/C=C/C(=O)NCCCO)[C@H](O)[C@@H](O)[C@@H]4O)O5)[C@H](O)[C@@H](O)[C@H]3O)C[C@@H](O)[C@@H]2O)[C@@H](O)[C@H](O)[C@H]1O)CC[C@H](O)[C@@H](O)[C@H](O)[C@H](C)C[C@H]1O[C@H](/C=C\[C@@H](O)[C@H](O)C[C@@H]2C[C@@H]3C[C@H](O2)[C@@H](CC[C@H]2O[C@H](CN)C[C@H]2O)O3)[C@@H](O)[C@H](O)[C@H]1O` [Palytoxin] yielded an LOAEL (Mus musculus; acute, oral, gavage, ICR, clinical signs) of 0.2 mg/kg-day.

Compound `[Cl-].[K+]` [Potassium chloride] has an LEL (Homo sapiens; duration: 4 weeks, oral, F) of 40 mg/kg-day.

`CCCCCCCCCCCCCCCCCC(=O)OC(C)C(=O)OC(C)C(=O)[O-].[Na+]` (stereo not drawn) [Sodium stearoyl lactylate] was tested, and the NOAEL (Rattus norvegicus; chronic, duration: 1 years, M/F, Wistar, no effects) was 2200 mg/kg-day.

Compound `NC1=N[C@H](O)[C@H]2[C@H]3O[C@]4(O)O[C@@H]([C@@H](O)[C@@]2(N1)[C@@H]4O)[C@]3(O)CO` [Tetrodotoxin] has an LEL (Mus musculus; acute, injection, intraperitoneal, no effects) of 0.025 mg/kg-day and an NOAEL (Mus musculus; acute, oral, other) of 0.075 mg/kg-day.

With `Cc1ncc(C[n+]2csc(CCO)c2C)c(N)n1.Cl.[Cl-]` [Thiamine hydrochloride] the NOAEL (Rattus norvegicus; subchronic, duration: 90 days, oral, diet) was 36 mg/kg-day.

`[O]=[Ti]=[O]` [Titanium dioxide] showed an NOAEL (Rattus norvegicus; chronic, duration: 103 weeks, oral, diet, M/F, Fischer 344, no effects) of 2250 mg/kg-day.

Compound `CNC(=O)C(C)(C(C)C)C(C)C` [Trimethyl isopropyl butanamide] has an NOEL (Rattus norvegicus; chronic, duration: 14 weeks, oral, diet, M/F, histopathology: nonneoplastic) of 5 mg/kg-day.

`COc1nc(NC(=O)NS(=O)(=O)c2ccccc2C(F)(F)F)nc(C(F)(F)F)n1` [Tritosulfuron] gave an NOAEL (Canidae; chronic, duration: 12 months, oral, Dog Other, organ weight) of 6 mg/kg-day and an NOAEL (Canidae; subchronic, duration: 90 days, oral, Dog Other) of 15 mg/kg-day.

`COc1ccc(C=O)cc1OC` [Veratraldehyde] gave an NOAEL (Rattus norvegicus; subchronic, duration: 13 weeks, oral, gavage, no effects) of 400 mg/kg-day.

`CC(C)=CCC/C(C)=C/C=C/C(C)=C/C=C/C(C)=C/C=C/C=C(C)/C=C/C=C(C)/C=C/C=C(\C)CCC=C(C)C` [all-trans-Lycopene] was tested, and the NOAEL (Rattus norvegicus; chronic, duration: 1 years, clinical chemistry) was 50 mg/kg-day.

Compound `CC1=C(/C=C/C(C)=C/C=C/C(C)=C/C=C/C=C(C)/C=C/C=C(C)/C=C/C2=C(C)CCCC2(C)C)C(C)(C)CCC1` [beta-Carotene] has an LEL (Homo sapiens; duration: 5 years) of at most 15 mg/day.

Compound `OC[C@H]1O[C@@H]2O[C@H]3[C@H](O)[C@@H](O)[C@@H](O[C@H]4[C@H](O)[C@@H](O)[C@@H](O[C@H]5[C@H](O)[C@@H](O)[C@@H](O[C@H]6[C@H](O)[C@@H](O)[C@@H](O[C@H]7[C@H](O)[C@@H](O)[C@@H](O[C@H]8[C@H](O)[C@@H](O)[C@@H](O[C@H]1[C@H](O)[C@H]2O)O[C@@H]8CO)O[C@@H]7CO)O[C@@H]6CO)O[C@@H]5CO)O[C@@H]4CO)O[C@@H]3CO` [beta-Cyclodextrin] has an NOAEL (Rattus norvegicus; chronic, duration: 6 months, oral, gavage, Long-Evans, body weight) of 600 mg/kg-day, an NOAEL (Rattus norvegicus; chronic, duration: 52 weeks, M/F, Sprague-Dawley, clinical chemistry) of 654 mg/kg-day and an NOAEL (Canidae; chronic, duration: 1 years, Dog Other, clinical chemistry) of 466 mg/kg-day.

`C=CC(C)=CCC=C(C)C` [beta-Ocimene] showed an NOAEL (Rattus norvegicus; subchronic, duration: 90 days, oral, diet, M/F, Sprague-Dawley, no effects) of 44 mg/kg-day.

For `Cc1ccc(C(C)C)cc1` [p-Cymene], the NOAEL (Rattus norvegicus; chronic, duration: 6 months, oral, gavage, F, organ weight) was 154 mg/kg-day.

`CC(C)(C)c1cc(O)ccc1O` [tert-Butylhydroquinone] gave an NOAEL (Canidae; chronic, duration: 117 weeks, oral, diet, M/F, Beagle, clinical chemistry) of 72 mg/kg-day.

— EPA's ToxValDB 9.5
